# Experimental data from ChEMBL document CHEMBL1201862, “PubChem BioAssay data set” (2004).
#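 How tested: cells in 96-well plates exposed to compound for 48 hours at five concentrations. Here, GI50 denotes the concentration required for 50% inhibition of growth.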 Calls of active or inactive are those of the source. No stated cut-off is given here; in the data, active = GI50 up to about 1.1 µM and inactive = higher.
# How the values were obtained:
# Assay in all cases: DTP human tumour cell line panel, 48 h
# [1] = test system: A498
# [2] = test system: A549
# [3] = test system: ACHN
# [4] = test system: HL-60
# [5] = test system: HOP-62
# [6] = test system: IGROV-1
# [7] = test system: KM12
# [8] = test system: Malme-3M
# [9] = test system: NCI-H522
# [10] = test system: OVCAR-3
# [11] = test system: OVCAR-5
# [12] = test system: OVCAR-8
# [13] = test system: SF-268
# [14] = test system: SK-MEL-2
# [15] = test system: SK-OV-3
# [16] = test system: SN12C
# [17] = test system: SR
# [18] = test system: RPMI-8226
# [19] = test system: MDA-MB-435
SMILES,GI50 [1],GI50 [2],GI50 [3],GI50 [4],GI50 [5],GI50 [6],GI50 [7],GI50 [8],GI50 [9],GI50 [10],GI50 [11],GI50 [12],GI50 [13],GI50 [14],GI50 [15],GI50 [16],GI50 [17],GI50 [18],GI50 [19]
O=C1NC2OC(CO)C(O)C(O)C2O1 (stereo unspecified),> 100 µM (inactive),> 100 µM (inactive),> 100 µM (inactive),> 100 µM (inactive),> 100 µM (inactive),> 100 µM (inactive),> 100 µM (inactive),> 100 µM (inactive),> 100 µM (inactive),> 100 µM (inactive),> 100 µM (inactive),> 100 µM (inactive),> 100 µM (inactive),> 100 µM (inactive),> 100 µM (inactive),> 100 µM (inactive),> 100 µM (inactive),,
CCSCN(C)c1nc(N(C)C)nc(N(C)C)n1,47.8 µM (inactive),55.2 µM (inactive),> 100 µM (inactive),29.9 µM (inactive),98.2 µM (inactive),78.7 µM (inactive),35.3 µM (inactive),34.3 µM (inactive),35 µM (inactive),38.3 µM (inactive),> 100 µM (inactive),81.5 µM (inactive),> 100 µM (inactive),> 100 µM (inactive),> 100 µM (inactive),77.6 µM (inactive),30 µM (inactive),49.1 µM (inactive),
c1ccc2[nH]c3nc4ccccc4c-3cc2c1,3.33 µM (inactive),0.245 µM (active),0.113 µM (active),0.192 µM (active),,0.286 µM (active),0.348 µM (active),0.92 µM (active),0.0824 µM (active),,1.69 µM (inactive),0.363 µM (active),0.598 µM (active),0.445 µM (active),0.839 µM (active),0.63 µM (active),0.0441 µM (active),0.327 µM (active),0.54 µM (active)
Cc1ccc(SSc2ccc(C)cc2C(=O)O)c(C(=O)O)c1,> 100 µM (inactive),> 100 µM (inactive),> 100 µM (inactive),> 100 µM (inactive),> 100 µM (inactive),,> 100 µM (inactive),> 100 µM (inactive),> 100 µM (inactive),,> 100 µM (inactive),> 100 µM (inactive),> 100 µM (inactive),> 100 µM (inactive),> 100 µM (inactive),> 100 µM (inactive),> 100 µM (inactive),,
COC(=O)[C@@H](O)[C@]1(C(=O)OC)C2O[C@@H](OC)[C@@H]1CCCCCC[C@H]2O,,> 100 µM (inactive),> 100 µM (inactive),,> 100 µM (inactive),> 100 µM (inactive),> 100 µM (inactive),> 100 µM (inactive),> 100 µM (inactive),> 100 µM (inactive),> 100 µM (inactive),> 100 µM (inactive),> 100 µM (inactive),51.5 µM (inactive),> 100 µM (inactive),> 100 µM (inactive),> 100 µM (inactive),> 100 µM (inactive),> 100 µM (inactive)
CCC(CO)Nc1nc2c(c(=O)n(C)c(=O)n2C)n1CCO (stereo unspecified),,> 100 µM (inactive),> 100 µM (inactive),,,> 100 µM (inactive),> 100 µM (inactive),> 100 µM (inactive),,> 100 µM (inactive),> 100 µM (inactive),> 100 µM (inactive),> 100 µM (inactive),> 100 µM (inactive),> 100 µM (inactive),> 100 µM (inactive),> 100 µM (inactive),> 100 µM (inactive),
Nc1ccc(C(=O)N/C(=C\C=C\c2ccco2)c2nc3c(O)nc(S)nc3[nH]2)cc1,,> 100 µM (inactive),> 100 µM (inactive),,,> 100 µM (inactive),> 100 µM (inactive),> 100 µM (inactive),> 100 µM (inactive),> 100 µM (inactive),> 100 µM (inactive),> 100 µM (inactive),> 100 µM (inactive),> 100 µM (inactive),> 100 µM (inactive),> 100 µM (inactive),> 100 µM (inactive),,
CCc1cccc(C)c1NC(=O)CCc1nnc2s/c(=C\c3cccc4ccccc34)c(=O)n12,> 100 µM (inactive),> 100 µM (inactive),> 100 µM (inactive),44.6 µM (inactive),> 100 µM (inactive),> 100 µM (inactive),92.7 µM (inactive),> 100 µM (inactive),> 100 µM (inactive),78 µM (inactive),> 100 µM (inactive),> 100 µM (inactive),> 100 µM (inactive),> 100 µM (inactive),> 100 µM (inactive),> 100 µM (inactive),,23.8 µM (inactive),
COC1CC(OS(=O)(=O)c2ccc(C)cc2)C(OS(=O)(=O)c2ccc(C)cc2)C(COS(=O)(=O)c2ccc(C)cc2)O1 (stereo unspecified),,5.9 µM (inactive),2.9 µM (inactive),30.1 µM (inactive),2.18 µM (inactive),4.89 µM (inactive),52 µM (inactive),2.39 µM (inactive),3.8 µM (inactive),1.89 µM (inactive),11.3 µM (inactive),1.82 µM (inactive),1.02 µM (active),6.85 µM (inactive),3.01 µM (inactive),3.96 µM (inactive),6.12 µM (inactive),19.4 µM (inactive),
